Source: patent US10869931B2, “Polyethylene glycol-modified angiogenesis inhibitor HM-1 and application thereof” (NANJING ANJI BIOLOGICAL TECHNOLOGY CO.,LTD, priority 2016, dated 2020)
Marks after values point to notes of the source that are not given here. Where no end group is shown, it is not given here.

Columns and labels:
[1] = test system: Gastric cancer tumor cells; assay: MTT proliferation inhibition, gastric cancer cells; format: cell-based, human; parameters: concentration or dose not given beside the values; conditions: 48 h
Procedure, shortened: (§1)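 Tumour cells plated at 2×10^4 cells/mL, attached overnight, then exposed to dilutions of mPEG-HM-1 for 48 h at 37 °C, 5% CO2. MTT added 4 h, formazan dissolved in DMSO, absorbance 570/630 nm; growth inhibition = 1 − treated/untreated, three independent repeats, mean±SD.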

[2] = test system: Pancreatic cancer tumor cells; assay: MTT proliferation inhibition, pancreatic cancer cells; format: cell-based, human; parameters: concentration or dose not given beside the values; conditions: 48 h
Procedure, shortened: as §1

[3] = test system: corneal neovascularization in BALB/c mice; assay: Alkali-burn corneal neovascularization in BALB/c mice (CD31 microvessel density); format: in vivo, mouse; conditions: for inhibition rate of corneal neovascularization: BALB/c mice, alkali burn, intravitreal injection once a day for 1 week; for Inhibition rate: corneal microvessel density vs control; for Inhibition rate / MVD: day 14 after alkali burn, intravitreal once a day for 1 week; for MVD: microvessel density (CD31) of cornea
From the text: (1) Preparation of corneal neovascularization model induced by alkali burn in BALB/c mice: mice were randomly grouped and labeled as mPEG-HM-1 experimental group and control group, 5 […] in each group, respectively, was given mPEG-HM-1 and saline by Intravitreal injection after alkali burn, once a day for 1 week. The inflammatory reaction and neovascularization of the cornea were observed under slit lamp microscope at 1 d, 7 d, and 14 d after alkali burn. On the 14th day after alkali burn, the corneal neovascularization was recorded under the slit lamp microscope in the anterior segment of the eye. All the mice were euthanized by cervical dislocation and the eyeballs were removed, washed with saline to rid of blood, and was fixed in 4% paraformaldehyde for 1.5 h, dehydrated in PBS containing 30% sucrose overnight, embedded in OCT frozen section embedding agent, stored in −80° C. refrigerator, frozen section 8 μm, and underwent immunocytochemical detection of CD31 expression. (2) Quantitative measurement of corneal tissue microvessel density: Microvessel density (MVD) is an indicator for evaluating angiogenesis. Vascular endothelial cells were labeled with anti-CD31 antibody by immunohistochemistry, and the number of microvessels per unit area was counted to measure the degree of neovascularization. Standards for counting microvessels: Microscopically, the endothelial cells or cell clusters that are clearly demarcated from adjacent tissues in the corneal tissue and stained brown or brown are counted in the neovascularization. The number of new blood vessels in the whole section was counted under a 10×20 microscope. After the corneal tissue was photographed, the entire corneal tissue area was calculated by image processing software Image J, and the neovascular density of the whole section was determined. The test was repeated 3 times independently. The results obtained by the test were expressed as mean±SD, and a statistical T test was performed. *P<0.05 was a significant difference, and **P<0.01 was a very significant difference.

[4] = test system: adjuvant arthritis (AA) SD rats; assay: Adjuvant arthritis (AA) rat model; format: in vivo; conditions: for Joint swelling / Left and right paw swelling / Clinical score: AA SD rats; for Clinical score: maximum score 16; for in vivo immune protection effect on adjuvant arthritis model (in words): AA rats, subcutaneous, once every three days, vs model group
[5] = test system: Ovarian cancer tumor cells; assay: MTT proliferation inhibition, ovarian cancer cells; format: cell-based, human; parameters: concentration or dose not given beside the values; conditions: 48 h
Procedure, shortened: as §1

[6] = test system: Human Umbilical Vein Endothelial Cells (HUVEC); assay: Transwell migration of HUVEC; format: cell-based; conditions: 24 h
Procedure, shortened: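 HUVEC (1×10^5/mL in blank medium) seeded with test solutions into Matrigel-coated transwell inserts, lower chamber holding medium with 5% FBS and 1% ECGS, 24 h at 37 °C. Migrated cells crystal-violet stained and counted in four fields; migration inhibition calculated from test versus blank-control counts, three independent repeats.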

Liver cancer tumor cells = assay: MTT proliferation inhibition, liver cancer cells; format: cell-based, human; parameters: concentration or dose not given beside the values; conditions: 48 h
Procedure, shortened: as §1

Hemangioma tumor cells = assay: MTT proliferation inhibition, hemangioma cells; format: cell-based, human; parameters: concentration or dose not given beside the values; conditions: 48 h
Procedure, shortened: as §1

[7] = test system: Bladder Cancer tumor cells; assay: MTT proliferation inhibition, bladder cancer cells; format: cell-based, human; parameters: concentration or dose not given beside the values; conditions: 48 h
Procedure, shortened: as §1

[8] = test system: Kidney cancer tumor cells; assay: MTT proliferation inhibition, kidney cancer cells; format: cell-based, human; parameters: concentration or dose not given beside the values; conditions: 48 h
Procedure, shortened: as §1

[9] = test system: Breast cancer tumor cells; assay: MTT proliferation inhibition, breast cancer cells; format: cell-based, human; parameters: concentration or dose not given beside the values; conditions: 48 h
Procedure, shortened: as §1

Melanoma tumor cells = assay: MTT proliferation inhibition, melanoma cells; format: cell-based, human; parameters: concentration or dose not given beside the values; conditions: 48 h
Procedure, shortened: as §1

[10] = 20 mg/kg subcutaneous once every three days
[11] = 40 mg/kg subcutaneous once every three days
[12] = 10 mg/kg subcutaneous once every three days

| Substance | rate of growth inhibition [1] [%] | rate of growth inhibition [2] [%] | inhibition rate of corneal neovascularization [3] [%] | Inhibition rate [3] [%] | MVD [3] | rate of growth inhibition [5] [%] | cell migration number (Mean ± SD) ([6]; 50 μg/mL) | inhibition rate of HUVEC migration ([6]; 50 μg/mL) | cell migration number (Mean ± SD) ([6]; 60 μg/mL) | inhibition rate of HUVEC migration ([6]; 60 μg/mL) | cell migration number (Mean ± SD) ([6]; 70 μg/mL) | inhibition rate of HUVEC migration ([6]; 70 μg/mL) | cell migration number (Mean ± SD) ([6]; 80 μg/mL) | inhibition rate of HUVEC migration ([6]; 80 μg/mL) | rate of growth inhibition (Liver cancer tumor cells) [%] | rate of growth inhibition (Hemangioma tumor cells) [%] | rate of growth inhibition [7] [%] | rate of growth inhibition [8] [%] | rate of growth inhibition [9] [%] | rate of growth inhibition (Melanoma tumor cells) [%] | other results |
| --- | --- | --- | --- | --- | --- | --- | --- | --- | --- | --- | --- | --- | --- | --- | --- | --- | --- | --- | --- | --- | --- |
| mPEG-SC10k-Arg-Gly-Ala-Asp-Arg-Ala-Gly-Gly-Gly-Gly-Arg-Gly-Asp ({mPEG‑SC 10 kDa}-RGADRAGGGGRGD) [mPEG-SC10k-HM-1] | 56.22 ± 16.19 | 60.53 ± 17.16 | 52.17 | 52.17 | 31.92 ± 3.648** | 65.89 ± 23.37 | 612.15 ± 50.34 | 42.49%* | 527.08 ± 48.30 | 50.31% | 439.89 ± 48.08 | 58.53% | 580.33 ± 58.20 | 45.29%* | 57.18 ± 12.35 | 52.88 ± 13.66 | 42.76 ± 10.06 | 60.07 ± 14.24 | 50.16 ± 13.27 | 70.62 ± 20.17 | Joint swelling [4, 10]: 0.70 ± 0.18 mm; Left and right paw swelling [4, 10]: 3.81 ± 0.71 mm; Clinical score [4, 10]: 5.52 ± 1.07; in vivo immune protection effect on adjuvant arthritis model (in words) [4]: has the most significant effect |
| mPEG2-NHS10k-Arg-Gly-Ala-Asp-Arg-Ala-Gly-Gly-Gly-Gly-Arg-Gly-Asp ({mPEG2‑NHS 10 kDa}-RGADRAGGGGRGD) [mPEG2-NHS10k-HM-1] | 55.67 ± 13.53 | 50.23 ± 14.26 | 50.07 | 50.07 | 33.32 ± 3.871** | 60.69 ± 21.24 | 603.97 ± 40.36 | 41.74%* | 506.83 ± 46.25 | 51.11% | 410.53 ± 48.64 | 60.40% | 563.02 ± 56.22 | 45.69%* | 54.19 ± 12.80 | 48.81 ± 12.46 | 43.78 ± 10.16 | 52.09 ± 14.91 | 50.92 ± 13.97 | 65.89 ± 20.57 | Joint swelling [4, 10]: 0.69 ± 0.19 mm; Left and right paw swelling [4, 10]: 3.80 ± 0.73 mm; Clinical score [4, 10]: 5.53 ± 1.09; in vivo immune protection effect on adjuvant arthritis model (in words) [4]: has the most significant effect |
| mPEG-SC20k-Arg-Gly-Ala-Asp-Arg-Ala-Gly-Gly-Gly-Gly-Arg-Gly-Asp ({mPEG‑SC 20 kDa}-RGADRAGGGGRGD) [mPEG-SC20k-HM-1] | 66.14 ± 20.08 | 62.63 ± 18.13 |  | 46.53 | 35.68 ± 4.842** | 70.94 ± 20.65 |  |  |  |  | 596.77 ± 50.58 | 43.74%* | 499.29 ± 50.26 | 52.93% | 61.09 ± 14.09 | 55.63 ± 18.30 | 50.39 ± 11.73 | 67.29 ± 18.16 | 52.18 ± 18.28 | 72.14 ± 20.69 | Joint swelling [4, 11]: 0.81 ± 0.20 mm; Left and right paw swelling [4, 11]: 3.75 ± 0.67 mm; Clinical score [4, 11]: 5.83 ± 1.01; cell migration number (Mean ± SD) ([6]; 90 μg/mL): 415.07 ± 46.74; inhibition rate of HUVEC migration ([6]; 90 μg/mL): 60.87%; cell migration number (Mean ± SD) ([6]; 100 μg/mL): 559.75 ± 52.94; inhibition rate of HUVEC migration ([6]; 100 μg/mL): 47.23%* |
| mPEG2-NHS5k-Arg-Gly-Ala-Asp-Arg-Ala-Gly-Gly-Gly-Gly-Arg-Gly-Asp ({mPEG2‑NHS 5 kDa}-RGADRAGGGGRGD) [mPEG2-NHS5k-HM-1] | 50.31 ± 13.29 | 46.58 ± 13.12 |  | 40.13 | 39.95 ± 3.985* | 56.88 ± 21.07 | 475.01 ± 50.90 | 54.18% | 590.29 ± 50.72 | 43.06%* |  |  |  |  | 50.92 ± 11.66 | 42.78 ± 12.50 | 38.64 ± 12.72 | 47.52 ± 11.48 | 45.69 ± 12.10 | 59.21 ± 18.93 | Joint swelling [4, 12]: 0.73 ± 0.16 mm; Left and right paw swelling [4, 12]: 3.91 ± 0.73 mm; Clinical score [4, 12]: 5.92 ± 1.04; cell migration number (Mean ± SD) ([6]; 30 μg/mL): 611.33 ± 58.92; inhibition rate of HUVEC migration ([6]; 30 μg/mL): 41.03%*; cell migration number (Mean ± SD) ([6]; 40 μg/mL): 516.16 ± 48.34; inhibition rate of HUVEC migration ([6]; 40 μg/mL): 50.21% |
| mPEG-bALD20k-Arg-Gly-Ala-Asp-Arg-Ala-Gly-Gly-Gly-Gly-Arg-Gly-Asp ({mPEG‑bALD 20 kDa}-RGADRAGGGGRGD) [mPEG-bALD20k-HM-1] | 70.21 ± 18.32 | 69.54 ± 18.37 |  | 47.84 | 34.81 ± 6.817** | 75.65 ± 20.09 |  |  |  |  |  |  |  | 55.68% | 62.49 ± 16.14 | 50.31 ± 14.00 | 45.24 ± 10.69 | 66.81 ± 19.48 | 60.97 ± 16.29 | 80.75 ± 22.94 | Joint swelling [4, 11]: 0.77 ± 0.23 mm; Left and right paw swelling [4, 11]: 3.78 ± 0.63 mm; Clinical score [4, 11]: 5.68 ± 1.10; inhibition rate of HUVEC migration ([6]; 90 μg/mL): 53.82% |
